Values quoted from earlier work in patent US7531581B2, “Method and use of acidified modified polymers to bind biocides in paints” (I-Tech AB, priority 2005, dated 2009).

tested on: barnacles; conditions: serotonin antagonists and dopamine agonists

**Q.** For `O=C(c1ccc(F)cc1)C1CCN(CCn2c(=O)[nH]c3ccccc3c2=O)CC1` [Ketanserin], which “effect on attachment of barnacles” value is on record?
**A.** inhibitory properties

**Q.** For `CC(C)C[C@H]1C(=O)N2CCC[C@H]2[C@]2(O)O[C@](NC(=O)[C@@H]3C=C4c5cccc6[nH]c(Br)c(c56)C[C@H]4N(C)C3)(C(C)C)C(=O)N12` [(+)-Bromocriptine], which “effect on attachment of barnacles” value is on record?
**A.** inhibitory properties

**Q.** For `CCCN1CCc2cccc3c2[C@H]1Cc1ccc(O)c(O)c1-3` [R (−)-NPA], which “effect on attachment of barnacles” value is on record?
**A.** inhibitory properties
